Values of other authors, collected in patent publication EP4520317A1, “TRANSDERMAL THERAPEUTIC SYSTEM OF LUMATEPERONE” (Luye Pharma Switzerland AG, priority 2023, dated 2025).

Details: in vivo

oral bioavailability: about 4.4%
Structure (SMILES): CN1CCN2c3c(cccc31)[C@@H]1CN(CCCC(=O)c3ccc(F)cc3)CC[C@@H]12 [lumateperone, 1-(4-fluoro-phenyl)-4-((6bR, 10aS)-3-methyl-2,3,6b,9,10,10a-hexahydro-1H,7H-pyrido[3',4':4,5]pyrrolo[1,2,3-de]quinoxalin-8-yl)-butan-1-one]
